Here are results for four compounds from ChEMBL document CHEMBL4513161, “CO-ADD screening of MMV (CH) - Pandemic Response Box” (2021).

In brackets after ≈: the same amount, converted by molar mass.

The subject of one experiment is HEK293. Nature of the experiment: cells. The experiment is classed as functional, Homo sapiens, ATCC CRL1573. The note with it: ASSAY_TEST Inhibition of Cell Viability, detection method Resazurin, Fluorescence (ex560/em590), MEDIA DMEM with 10% FBS, plate type 384well, TC, CORNING #3712, time 18 hr, read-out: CC50. (In general: Resazurin is reduced to fluorescent resorufin, in cell work by metabolically active cells.)

The test system of experiment [1] is Pseudomonas aeruginosa. Nature of the experiment: Antibacterial activity against Pseudomonas aeruginosa PAO397 [PAO1 d(mexAB-oprM) d(mexCD-oprJ) d(mexEF-oprN) d(mexJKL) d(mexXY) d(opmH)] (CO-ADD:GN_211); MIC in CAMBH media using NBS plates, by OD(600). Format: functional. The conditions noted are these: ASSAY_TEST Inhibition of Bacterial Growth, detection method Absorption (OD600), MEDIA CAMHB, plate type 384well, CORNING #3640, time 18 hr.

In a further experiment the test system is Staphylococcus aureus. The conditions noted are these: ASSAY_TEST Inhibition of Bacterial Growth; detection method Absorption (OD600); MEDIA CAMHB; plate type 384well; NBS; CORNING #3640; time 18 hr.
The next experiment deals with Escherichia coli. The note with it: ASSAY_TEST Inhibition of Bacterial Growth; detection method Absorption (OD600); MEDIA CAMHB; plate type 384well; NBS; CORNING #3640; time 18 hr.
A further experiment deals with Klebsiella pneumoniae. The conditions noted are these: ASSAY_TEST Inhibition of Bacterial Growth; detection method Absorption (OD600); MEDIA CAMHB; plate type 384well; NBS; CORNING #3640; time 18 hr.
Experiment [2] deals with Pseudomonas aeruginosa. The conditions noted are these: ASSAY_TEST Inhibition of Bacterial Growth; detection method Absorption (OD600); MEDIA CAMHB; plate type 384well; NBS; CORNING #3640; time 18 hr.
Description: Antibacterial activity against Pseudomonas aeruginosa ATCC 27853 (CO-ADD:GN_042); MIC in CAMBH media using NBS plates, by OD(600)
For another experiment, the system named is Acinetobacter baumannii. The conditions noted are these: ASSAY_TEST Inhibition of Bacterial Growth; detection method Absorption (OD600); MEDIA CAMHB; plate type 384well; NBS; CORNING #3640; time 18 hr.
The subject of a further experiment is Candida albicans. The note with it: ASSAY_TEST Inhibition of Fungal Growth; detection method Absorption (OD530); plate type 384well; NBS; CORNING #3640.

Description for Acinetobacter baumannii: Antibacterial activity against Acinetobacter baumannii ATCC 19606 (CO-ADD:GN_034); MIC in CAMBH media using NBS plates, by OD600
Description for Candida albicans: Antifungal activity against Candida albicans ATCC 90028 (CO-ADD:FG_001); MIC in YNB media using NBS plates, by OD630
Description for Cryptococcus neoformans: Antifungal activity against Cryptococcus neoformans H99 ATCC 208821 (CO-ADD:FG_002); MIC in YNB media using NBS plates, by Resazurin OD(600-570)
Description for Escherichia coli: Antibacterial activity against Escherichia coli ATCC 25922 (CO-ADD:GN_001); MIC in CAMBH media using NBS plates, by OD(600)
Description for Klebsiella pneumoniae: Antibacterial activity against Klebsiella pneumoniae MDR ATCC 70063 (CO-ADD:GN_003); MIC in CAMBH media using NBS plates, by OD(600)
Description for Staphylococcus aureus: Antibacterial activity against Staphylococcus aureus MRSA ATCC 43300 (CO-ADD:GP_020); MIC in CAMBH media, using NBS plates, by OD(600)

For `C[C@H]1COc2c(N3CCN(C)CC3)c(F)cc3c(=O)c(C(=O)O)cn1c23.C[C@H]1COc2c(N3CCN(C)CC3)c(F)cc3c(=O)c(C(=O)O)cn1c23.O` [LEVOFLOXACIN], the CC50 in the experiment on HEK293 was more than 20 µM. Besides, the MIC in the experiment on Pseudomonas aeruginosa [1] was not above 0.156 µM; with Staphylococcus aureus, 2.5 µM; in the experiment with Escherichia coli it was “<=0.1562 uM”; in the experiment on Klebsiella pneumoniae, 5 µM; against Pseudomonas aeruginosa [2] it was 2.5 µM; in the experiment on Acinetobacter baumannii, 10 µM. For the same compound, the MIC against Candida albicans and in the experiment with Cryptococcus neoformans was more than 20 µM each time.

With `CC(=O)Oc1ccccc1C(=O)Nc1ncc([N+](=O)[O-])s1` [NITAZOXANIDE], the CC50 with HEK293 (Homo sapiens, ATCC CRL1573, HEK293) is 8.59 µM. In addition, the MIC in the experiment on Pseudomonas aeruginosa [1], with Staphylococcus aureus, in the experiment with Escherichia coli, against Klebsiella pneumoniae, in the experiment with Pseudomonas aeruginosa [2] and in the experiment with Acinetobacter baumannii was more than 20 µM each time. Further, the MIC against Candida albicans and with Cryptococcus neoformans was more than 20 µM in each case.

For the compound `CC(=O)NC[C@H]1CN(c2ccc(N3CCSCC3)c(F)c2)C(=O)O1` [SUTEZOLID], the CC50 in the experiment on HEK293 was more than 20 µM. In addition, the minimal inhibitory concentration (MIC) against Pseudomonas aeruginosa [1] was 20 µM (≈ 7.07 µg/mL); with Staphylococcus aureus, 5 µM (≈ 1.77 µg/mL); in the experiment with Escherichia coli it was more than 20 µM; against Klebsiella pneumoniae, more than 20 µM; against Pseudomonas aeruginosa [2], more than 20 µM; with Acinetobacter baumannii, more than 20 µM. In addition, the MIC in the experiment with Candida albicans and against Cryptococcus neoformans was more than 20 µM each time.

Turning to `COc1cc(Cc2cnc(N)nc2N)cc(OC)c1OC` [TRIMETHOPRIM], the CC50 with HEK293 was more than 20 µM. Also, the MIC was 5 µM (≈ 1.45 µg/mL) against Pseudomonas aeruginosa [1]; 5 µM (≈ 1.45 µg/mL) in the experiment on Staphylococcus aureus; 2.5 µM (≈ 0.726 µg/mL) against Escherichia coli; 5 µM (≈ 1.45 µg/mL) against Klebsiella pneumoniae; 20 µM (≈ 5.81 µg/mL) in the experiment on Pseudomonas aeruginosa [2]; more than 20 µM with Acinetobacter baumannii. Besides, the MIC with Candida albicans and against Cryptococcus neoformans was more than 20 µM each time.

The term CC50 denotes the concentration that lowers cell viability or growth by half. In general, MIC refers to the smallest concentration in the dilution series that meets the test's criterion for growth inhibition. Low readings indicate inhibition by little substance, high ones a need for much substance.
